Counter-ions that a name gives are not always drawn.
Columns and labels:
[1] = tested on: full length SMN2 minigene mRNA (HEK293H cells stably transfected with the SMN2-A minigene construct); test: RT-qPCR assay for SMN2 minigene pre-mRNA splicing in cultured cells; type: cell-based; settings: Homo sapiens, HEK293-H, 24 hours, 7-point concentration curve, concentration giving 1.5-fold FL SMN2mini mRNA vs vehicle, read-out: EC1.5x minigene (EC1.5x concentration for production of full length SMN2 minigene mRNA)
Protocol: The reverse transcription-quantitative PCR-based (RT-qPCR) assay is used to quantify the level of the full length SMN2 minigene (referred to herein by the term “FL SMN2mini”) mRNA containing SMN2 exon 7 in a HEK293H cell line stably transfected with said minigene and treated with a test compound. Materials used and respective sources are listed below in Table 1.
The SMN2-A minigene construct was prepared as described in International Patent Application WO2009/151546A1 page 145 paragraph [00400] to page 147 paragraph [00412] (incl. FIG. 1 and FIG. 3 therein).
HEK293H cells stably transfected with the SMN2-A minigene construct (10,000 cells/well) are seeded in 200 μL of cell culture medium (DMEM plus 10% FBS, with 200 μg/mL hygromycin) in 96-well flat-bottom plates and the plate is immediately swirled to ensure proper dispersal of cells and the formation of an even monolayer of cells. Cells are allowed to attach for 6 hours. Test compounds are serially diluted 3.16-fold in 100% DMSO to generate a 7-point concentration curve. A solution of test compound (1 μL, 200× in DMSO) is added to each cell-containing well and the plate is incubated for 24 hours in a cell culture incubator (37° C., 5% CO2, 100% relative humidity). 2 replicates are prepared for each test compound concentration. The cells are then lysed in the Cells-To-Ct lysis buffer and the lysate is stored at −80° C.
Full length SMN2-A minigene and GAPDH mRNA are quantified using the primers and probes referenced in Table 2. Primer SMN Forward A (SEQ ID NO.1) hybridizes to a nucleotide sequence in exon 7 (nucleotide 22 to nucleotide 40), primer SMN Reverse A (SEQ ID NO.2) hybridizes to a nucleotide sequence in the coding sequence of Firefly luciferase, SMN Probe A (SEQ ID NO.3) hybridizes to a nucleotide sequence in exon 7 (nucleotide 50 to nucleotide 54) and exon 8 (nucleotide 1 to nucleotide 21). The combination of these three oligonucleotides detects only SMN1 or SMN2 minigenes (RT-qPCR) and will not detect endogenous SMN1 or SMN2 genes.
The SMN forward and reverse primers are used at final concentrations of 0.4 μM. The SMN probe is used at a final concentration of 0.15 μM. The GAPDH primers are used at final concentrations of 0.2 μM and the probe at 0.15 μM.
The SMN2-minigene GAPDH mix (15 μL total volume) is prepared by combining 7.5 of 2×RT-PCR buffer, 0.4 μL of 25×RT-PCR enzyme mix, 0.75 μL of 20× GAPDH primer-probe mix, […] of water, 2 μL of 10-fold diluted cell lysate, 0.06 μL of 100 μM SMN forward primer, 0.06 μL of 100 μM SMN reverse primer, and 0.225 μL of 100 μM SMN probe.
PCR is carried out at the following temperatures for the indicated time: Step 1: 48° C. (15 min); Step 2: 95° C. (10 min); Step 3: 95° C. (15 sec); Step 4: 60° C. (1 min); then repeat Steps 3 and 4 for a total of 40 cycles.
Each reaction mixture contains both SMN2-A minigene and GAPDH primers/probe sets (multiplex design), allowing simultaneous measurement of the levels of two transcripts.
The increase in the abundance of the FL SMN2mini mRNA relative to that in cells treated with vehicle control is determined from real-time PCR data using a modified ΔΔCt method (as described in Livak and Schmittgen, Methods, 2001, 25:402-8). The amplification efficiency E is calculated from the slope of the amplification curve for FL SMN2mini and GAPDH individually. The abundance of FL SMN2mini and GAPDH mRNA are then calculated as (1+E)^−Ct, where Ct is the threshold value for each amplicon. The abundance of FL SMN2mini mRNA is normalized to GAPDH mRNA abundance. The normalized FL SMN2mini mRNA abundance from test compound-treated samples is then divided by normalized FL SMN2mini mRNA abundance from vehicle-treated cells to determine the level of FL SMN2mini mRNA relative to vehicle control. […]

[2] = tested on: SMN protein in SMA patient fibroblast cells (GM03813); test: SMN protein assay (HTRF) in cultured cells; type: cell-based; settings: Homo sapiens, SMA Type 1 patient fibroblasts, 48 hours; for EC (1.5-fold): 7-point concentration curve, concentration giving 1.5 times SMN protein vs vehicle, read-out: EC1.5x SMN protein (EC1.5x concentration for SMN protein expression); for maximal fold induction: fold increase relative to vehicle control, read-out: Max. fold increase of SMN protein
Protocol: The SMN HTRF (homogeneous time resolved fluorescence) assay is used to quantify the level of SMN protein in SMA patient fibroblast cells treated with test compounds. Materials used and respective sources are listed below in Table 4.
Cells are thawed and cultured in DMEM-10% FBS for 72 hours. Cells are trypsinized, counted and re-suspended to a concentration of 25,000 cells/mL in DMEM-10% FBS. The cell suspensions are plated at 5,000 cells per well in a 96 well microtiter plate and incubated for 3 to 5 hours. Test compounds are serially diluted 3.16-fold in 100% DMSO to generate a 7-point concentration curve. 1 μL of test compound solution is transferred to cell-containing wells and cells are incubated for 48 hours in a cell culture incubator (37° C., 5% CO2, 100% relative humidity). Triplicate samples are set up for each test compound concentration. After 48 hours, the supernatant is removed from the wells and 25 μL of the RIPA lysis buffer, containing protease inhibitors, is added to the wells and incubated with shaking at room temperature for 1 hour. 25 μL of the diluent is added and then 35 μL of the resulting lysate is transferred to a 384-well plate, where each well contains 5 μL of the antibody solution (1:100 dilution of anti-SMN d2 and anti-SMN cryptate in SMN reconstitution buffer). The plate is centrifuged for 1 minute to bring the solution to the bottom of the wells, then incubated overnight at room temperature. Fluorescence for each well of the plate at 665 nm and 620 nm is measured on an EnVision multilabel plate reader (Perkin-Elmer).
The normalized fluorescence signal is calculated for each sample, Blank and vehicle control well by dividing the signal at 665 nm by the signal at 620 nm. Normalizing the signal accounts for possible fluorescence quenching due to the matrix effect of the lysate. The ΔF value (a measurement of SMN protein abundance as a percent value) for each sample well is calculated by subtracting the normalized average fluorescence for the Blank control wells from the normalized fluorescence for each sample well, then dividing this difference by the normalized average fluorescence for the Blank control wells and multiplying the resulting value by 100. The ΔF value for each sample well represents the SMN protein abundance from test compound-treated samples. The ΔF value for each sample well is divided by the ΔF value for the vehicle control wells to calculate the fold increase in SMN protein abundance relative to the vehicle control. Table 5 provides EC1.5× concentrations for SMN protein expression that was obtained from the 7-point concentration data generated according to the above procedure for particular compounds of the present invention.
Table 6 provides the maximum fold increase of SMN protein that was obtained from the 7-point concentration data generated according to the above procedure for particular compounds of the present invention

| Compound | EC (1.5-fold) [1] | EC (1.5-fold) [2] | maximal fold induction [2] |
| --- | --- | --- | --- |
| CCOc1cc(N2C[C@@H](C)N[C@@H](C)C2)ccc1C(=O)Nc1cn2cc(C)nc2cn1 [Example 10, 4-[(3S,5R)-3,5-dimethylpiperazin-1-yl]-2-ethoxy-N-(2-methylimidazo[1,2-a]pyrazin-6-yl)benzamide] | 0.0383 µM | 0.13 µM | 1.91 |
| COc1cc(N2CCNC(C)(C)C2)ccc1C(=O)Nc1cn2cc(C)nc2cn1 [Example 41, 4-(3,3-dimethylpiperazin-1-yl)-2-methoxy-N-(2-methylimidazo[1,2-a]pyrazin-6-yl)benzamide] | 0.0464 µM | 0.242 µM | 2.05 |
| COc1cc(N2CCN[C@H](C)C2)ccc1C(=O)Nc1cn2cc(C)nc2cn1 [Example 38, 2-methoxy-N-(2-methylimidazo[1,2-a]pyrazin-6-yl)-4-[(3R)-3-methylpiperazin-1-yl]benzamide] | 0.0578 µM | 0.206 µM | 1.74 |
| Cc1cn2cc(NC(=O)c3ccc(N4CCN5CCC[C@H]5C4)cc3F)nc(C3CC3)c2n1 [Example 17, 4-[(8aS)-3,4,6,7,8,8a-hexahydro-1H-pyrrolo[1,2-a]pyrazin-2-yl]-N-(8-cyclopropyl-2-methylimidazo[1,2-a]pyrazin-6-yl)-2-fluorobenzamide] | 0.0338 µM | 1.7 µM | 1.51 |
| Cc1cn2cc(NC(=O)c3ccc(N4CCNCC4)cc3)ncc2n1 [Example 2, N-(2-methylimidazo[1,2-a]pyrazin-6-yl)-4-piperazin-1-ylbenzamide hydrochloride] | 1.05 µM | 2.25 µM | 1.74 |
| Cc1cn2cc(NC(=O)c3ccc(N4CCN5CCC[C@H]5C4)cc3F)nc(C)c2n1 [Example 13, 4-[(8aS)-3,4,6,7,8,8a-hexahydro-1H-pyrrolo[1,2-a]pyrazin-2-yl]-N-(2,8-dimethylimidazo[1,2-a]pyrazin-6-yl)-2-fluorobenzamide] | 0.0262 µM | 0.109 µM | 1.66 |
| COc1cc(N2C[C@@H](C)N[C@@H](C)C2)ccc1C(=O)Nc1cn2cc(C)nc2cn1 [Example 31, 4-[(3R,5S)-3,5-dimethylpiperazin-1-yl]-2-methoxy-N-(2-methylimidazo[1,2-a]pyrazin-6-yl)benzamide] | 0.0358 µM | 0.221 µM | 1.87 |
| Cc1cn2cc(NC(=O)c3c(F)cc(N4CCNCC4)cc3Cl)ncc2n1 [Example 28, 2-chloro-6-fluoro-N-(2-methylimidazo[1,2-a]pyrazin-6-yl)-4-piperazin-1-ylbenzamide hydrochloride] | 2.03 µM | 8.76 µM | 1.65 |
| CCOc1cc(N2CCC(N3CC(OC)C3)CC2)ccc1C(=O)Nc1cn2cc(C)nc2c(C)n1 [Example 49, N-(2,8-dimethylimidazo[1,2-a]pyrazin-6-yl)-2-ethoxy-4-[4-(3-methoxyazetidin-1-yl)piperidin-1-yl]benzamide] | 0.223 µM | 1.98 µM | 1.51 |
| CC[C@@H]1CN(c2ccc(C(=O)Nc3cn4cc(C)nc4cn3)c(OC)c2)CCN1 [Example 40, 4-[(3R)-3-ethylpiperazin-1-yl]-2-methoxy-N-(2-methylimidazo[1,2-a]pyrazin-6-yl)benzamide] | 0.038 µM | 0.388 µM | 1.93 |
| Cc1cn2cc(NC(=O)c3ccc(N4CCNC(C(C)C)C4)cc3F)ncc2n1 (stereo not drawn) [Example 45, 2-fluoro-N-(2-methylimidazo[1,2-a]pyrazin-6-yl)-4-(3-propan-2-ylpiperazin-1-yl)benzamide hydrochloride] | 0.106 µM | 0.264 µM | 1.76 |
| CCOc1cc(N2CCN3CCC[C@H]3C2)ccc1C(=O)Nc1cn2cc(C)nc2c(C)n1 [Example 12, 4-[(8aS)-3,4,6,7,8,8a-hexahydro-1H-pyrrolo[1,2-a]pyrazin-2-yl]-N-(2,8-dimethylimidazo[1,2-a]pyrazin-6-yl)-2-ethoxybenzamide] | 0.145 µM | 1.73 µM | 1.56 |
| Cc1cn2cc(NC(=O)c3ccc(N4CCNC(C)(C)C4)cc3F)nc(C3CC3)c2n1 [Example 37, N-(8-cyclopropyl-2-methylimidazo[1,2-a]pyrazin-6-yl)-4-(3,3-dimethylpiperazin-1-yl)-2-fluorobenzamide hydrochloride] | 0.0317 µM | 0.287 µM | 1.72 |
| CCOc1cc(N2CCN3CCC[C@H]3C2)ccc1C(=O)Nc1cn2cc(C)nc2cn1 [Example 3, 4-[(8aS)-3,4,6,7,8,8a-hexahydro-1H-pyrrolo[1,2-a]pyrazin-2-yl]-2-ethoxy-N-(2-methylimidazo[1,2-a]pyrazin-6-yl)benzamide] | 0.102 µM | 0.409 µM | 1.83 |
| CC[C@@H]1CN(c2ccc(C(=O)Nc3cn4cc(C)nc4cn3)c(OC)n2)CCN1 [Example 46, 6-[(3R)-3-ethylpiperazin-1-yl]-2-methoxy-N-(2-methylimidazo[1,2-a]pyrazin-6-yl)pyridine-3-carboxamide hydrochloride] | 0.189 µM | 0.58 µM | 1.67 |

Source: patent US9975900B2, “Substituted imidazo[1,2-α]pyrazines for treating spinal muscular atrophy” (Hoffmann-La Roche Inc., priority 2014, dated 2018)
